The text below walks through data of patent US10752609B2, “GSK-3 inhibitors” (priority 2016, dated 2020).

Like-named read-outs stand apart in the source and are kept apart here.

In one assay the target is GSK3β (Homo sapiens, UniProt P49841). The experiment in a line: GSK3β kinase assay (Caliper LabChip3000 mobility shift, fluoresceinated peptide substrate). Format: biochemical.
A further assay concerns pTau. The experiment in a line: pTau assay (no method described). Format: cell-based.
A further assay concerns the target GSK3α (Homo sapiens, UniProt P49840). The experiment in a line: GSK3α kinase assay (Caliper LabChip3000 mobility shift, fluoresceinated peptide substrate).
The mark [1] stands for this setting: 250 pM enzyme, 20 uM ATP, 1.5 uM peptide, 20 hours room temperature, first value of cell GSK3β/GSK3α, read-out: GSK3β (nM), IC50.

Sequence of GSK3α (P49840 whole entry, species assumed): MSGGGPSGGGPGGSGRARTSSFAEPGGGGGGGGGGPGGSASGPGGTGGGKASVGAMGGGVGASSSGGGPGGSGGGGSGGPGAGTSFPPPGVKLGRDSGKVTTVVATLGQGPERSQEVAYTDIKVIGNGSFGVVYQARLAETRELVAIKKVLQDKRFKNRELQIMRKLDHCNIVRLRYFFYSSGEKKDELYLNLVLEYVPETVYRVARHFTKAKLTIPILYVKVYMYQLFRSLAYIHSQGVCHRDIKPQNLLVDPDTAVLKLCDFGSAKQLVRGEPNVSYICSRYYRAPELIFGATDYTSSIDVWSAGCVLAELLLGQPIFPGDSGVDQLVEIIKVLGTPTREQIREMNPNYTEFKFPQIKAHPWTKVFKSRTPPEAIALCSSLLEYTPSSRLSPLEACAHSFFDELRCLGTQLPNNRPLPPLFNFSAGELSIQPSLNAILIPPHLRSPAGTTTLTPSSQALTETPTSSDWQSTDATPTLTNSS
Sequence of GSK3β (P49841 whole entry, species assumed): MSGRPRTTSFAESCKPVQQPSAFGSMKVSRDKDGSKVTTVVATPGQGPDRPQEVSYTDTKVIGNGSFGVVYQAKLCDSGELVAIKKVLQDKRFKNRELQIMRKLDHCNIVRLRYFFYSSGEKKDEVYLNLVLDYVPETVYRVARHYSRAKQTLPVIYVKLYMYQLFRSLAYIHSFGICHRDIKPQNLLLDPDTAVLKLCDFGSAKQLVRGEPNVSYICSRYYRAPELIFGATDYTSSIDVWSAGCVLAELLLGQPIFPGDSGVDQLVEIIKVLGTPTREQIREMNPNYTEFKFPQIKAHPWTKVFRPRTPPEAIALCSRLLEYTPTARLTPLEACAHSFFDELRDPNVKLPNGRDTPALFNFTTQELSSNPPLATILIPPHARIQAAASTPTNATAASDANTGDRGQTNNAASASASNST
Procedure for GSK3β: The kinase assay was performed in V-bottom 384-well plates. […] The reaction was incubated at room temperature for 20 hours and terminated by adding 45 μl of 35 mM EDTA to each sample. The reaction mixture was analyzed on the Caliper LabChip3000 (Caliper, Hopkinton, Mass.) by electrophoretic separation of the unphosphorylated substrate and phosphorylated product. […] Compounds were dissolved at 10 mM in dimethylsulfoxide (DMSO) and evaluated at eleven concentrations. IC50 values were derived by non-linear regression analysis.

One may read the IC50 as the concentration at which inhibition is half-maximal. With `O=C(Nc1cnccc1-c1ccccc1)c1ccnc(Nc2ccc(OC(F)F)nc2)n1` [Example 38, 2-((6-(Difluoromethoxy)pyridin-3-yl)amino)-N-(4-phenylpyridin-3-yl)pyrimidine-4-carboxamide], the IC50 at GSK3β (setting [1]) was found to be 3.1 nM; with pTau, 130 nM; at GSK3α, 1.1 nM.
The matching figures for `O=C(Nc1cncnc1)c1ccnc(Nc2cccc(-c3ccccc3)c2)n1` [Example 194, 2-([1,1′-Biphenyl]-3-ylamino)-N-(pyrimidin-5-yl)pyrimidine-4-carboxamide]: 4.4 nM, 390 nM and 2.9 nM.
For the molecule `O=C(Nc1cnccc1-c1ccccc1)c1ccnc(Nc2ccc(C(F)(F)F)cc2F)n1` [Example 25, 2-((2-Fluoro-4-(trifluoromethyl)phenyl)amino)-N-(4-phenylpyridin-3-yl)pyrimidine-4-carboxamide], the 50% inhibitory concentration (IC50) at GSK3β was found to be 3.3 nM; with pTau it was 4800 nM; on GSK3α, 2.2 nM.
As to `COc1ccc(Nc2nccc(C(=O)Nc3cnccc3-c3ccccc3)n2)cc1` [Example 6, 2-((4-Methoxyphenyl)amino)-N-(4-phenylpyridin-3-yl)pyrimidine-4-carboxamide], the IC50 at GSK3β (setting [1]) amounted to 0.64 nM; in the assay on pTau, 51 nM; on GSK3α, 0.4 nM.
Regarding `CCO[C@H]1COC[C@@H]1Nc1nccc(C(=O)Nc2cnccc2-c2ccccc2)n1` [Example 92, 2-(((3S,4R)-4-Ethoxytetrahydrofuran-3-yl)amino)-N-(4-phenylpyridin-3-yl)pyrimidine-4-carboxamide], the IC50 at GSK3β (setting [1]) is 3.8 nM; with pTau, 250 nM; on GSK3α it was 2.2 nM.
Regarding `N#Cc1ccc(Nc2nccc(C(=O)Nc3cnccc3-c3ccccc3)n2)c(Cl)c1` [Example 24, 2-((2-Chloro-4-cyanophenyl)amino)-N-(4-phenylpyridin-3-yl)pyrimidine-4-carboxamide], the 50% inhibitory concentration (IC50) on GSK3β (setting [1]) turned out to be 3.8 nM; in the assay with pTau, 170 nM; on GSK3α, 1.6 nM.
In the case of `CCn1nccc1Nc1nccc(C(=O)Nc2cnccc2-c2ccccc2)n1` [Example 90, 2-((1-Ethyl-1H-pyrazol-5-yl)amino)-N-(4-phenylpyridin-3-yl)pyrimidine-4-carboxamide], the IC50 on GSK3β was determined as 3 nM; in the assay with pTau it was 120 nM; at GSK3α, 2.2 nM.
Take `O=C(Nc1cnccc1-c1ccc(F)cc1F)c1ccnc(Nc2cccnn2)n1` [Example 164, N-(4-(2,4-Difluorophenyl)pyridin-3-yl)-2-(pyridazin-3-ylamino)pyrimidine-4-carboxamide]: the half-inhibitory concentration (IC50) on GSK3β (setting [1]) came to 1500 nM; in the assay with pTau, 10000 nM; at GSK3α, 780 nM.
Take `O=C(Nc1cnccc1-c1ccccc1)c1ccnc(Nc2ccc(-n3ccnc3)cc2)n1` [Example 16, 2-((4-(1H-Imidazol-1-yl)phenyl)amino)-N-(4-phenylpyridin-3-yl)pyrimidine-4-carboxamide]: the half-inhibitory concentration (IC50) amounted to 54 nM on GSK3β (setting [1]), 5700 nM in the assay on pTau and 36 nM on GSK3α.
As for `O=C(Nc1cnc(F)cc1OCC(F)(F)F)c1ccnc(Nc2ccc(Cl)cc2)n1` [Example 110, 2-((4-Chlorophenyl)amino)-N-(6-fluoro-4-(2,2,2-trifluoroethoxy)pyridin-3-yl)pyrimidine-4-carboxamide], the IC50 at GSK3β (setting [1]) came to 1.1 nM; in the assay with pTau, 65 nM; on GSK3α, 0.68 nM.
Consider `O=C(Nc1cncc(-c2ccccc2F)c1)c1ccnc(Nc2ccc(F)nc2)n1` [Example 104, N-(5-(2-Fluorophenyl)pyridin-3-yl)-2-((6-fluoropyridin-3-yl)amino)pyrimidine-4-carboxamide], for which the values for the half-inhibitory concentration (IC50) at GSK3β (setting [1]), in the assay on pTau and at GSK3α were 4.8 nM, 660 nM and 2.1 nM, respectively.
`Cc1cc(C#N)ccc1Nc1nccc(C(=O)Nc2cnccc2-c2ccccc2)n1` [Example 21, 2-((4-Cyano-2-methylphenyl)amino)-N-(4-phenylpyridin-3-yl)pyrimidine-4-carboxamide]: the results for the 50% inhibitory concentration (IC50) at GSK3β (setting [1]), in the assay with pTau and on GSK3α were 0.43 nM, 97 nM and 0.35 nM, respectively.
In the same order, the values of `O=C(Nc1cnccc1OCC(F)(F)F)c1ccnc(Nc2ccc(OC(F)F)nc2)n1` [Example 63, 2-((6-(Difluoromethoxy)pyridin-3-yl)amino)-N-(4-(2,2,2-trifluoroethoxy)pyridin-3-yl)pyrimidine-4-carboxamide] are 0.18 nM, 3 nM and 0.13 nM.
As for `O=C(Nc1cnccc1-c1ccccc1)c1ccnc(Nc2cc(F)c(Cl)cc2F)n1` [Example 32, 2-((4-Chloro-2,5-difluorophenyl)amino)-N-(4-phenylpyridin-3-yl)pyrimidine-4-carboxamide], the IC50 on GSK3β (setting [1]) came to 0.48 nM; in the assay with pTau, 100 nM; at GSK3α, 0.56 nM.
As to `O=C(Nc1cnccc1-c1ccccc1)c1ccnc(Nc2ccc(F)nc2)n1` [Example 86, 2-((6-Fluoropyridin-3-yl)amino)-N-(4-phenylpyridin-3-yl)pyrimidine-4-carboxamide], the results for the IC50 at GSK3β (setting [1]), in the assay with pTau and at GSK3α were 0.8 nM, 68 nM and 0.4 nM, respectively.
Take `N#Cc1ccc(Nc2nccc(C(=O)Nc3cnccc3-c3ccc(F)cc3)n2)cc1` [Example 45, 2-((4-Cyanophenyl)amino)-N-(4-(4-fluorophenyl)pyridin-3-yl)pyrimidine-4-carboxamide]: the values for the half-maximal inhibitory concentration (IC50) at GSK3β (setting [1]), with pTau and on GSK3α were 0.35 nM, 10 nM and 0.29 nM, respectively.
As to `O=C(Nc1cnccc1-c1ccccc1)c1ccnc(Nc2ccc(F)cc2)n1` [Example 5, 2-((4-Fluorophenyl)amino)-N-(4-phenylpyridin-3-yl)pyrimidine-4-carboxamide], the half-maximal inhibitory concentration (IC50) at GSK3β (setting [1]) turned out to be 0.26 nM; in the assay on pTau it was 37 nM; on GSK3α, 0.19 nM.
As to `O=C(Nc1cncnc1N1CCOCC1)c1ccnc(NCC2CCC2)n1` [Example 203, 2-((Cyclobutylmethyl)amino)-N-(4-morpholinopyrimidin-5-yl)pyrimidine-4-carboxamide], the half-inhibitory concentration (IC50) on GSK3β was found to be 8.7 nM; in the assay on pTau, 600 nM; at GSK3α it was 6.1 nM.
`O=C(Nc1cnccc1OCC(F)(F)F)c1ccnc(Nc2ccc(OC(F)(F)F)cc2)n1` [Example 59, N-(4-(2,2,2-Trifluoroethoxy)pyridin-3-yl)-2-((4-(trifluoromethoxy)phenyl)amino)pyrimidine-4-carboxamide]: the IC50 is 0.18 nM on GSK3β (setting [1]), 8.2 nM in the assay on pTau and 0.21 nM on GSK3α.
As to `O=C(Nc1cnccc1-c1ccc(F)cc1)c1ccnc(Nc2ccc(Cl)cc2)n1` [Example 46, 2-((4-Chlorophenyl)amino)-N-(4-(4-fluorophenyl)pyridin-3-yl)pyrimidine-4-carboxamide], the IC50 on GSK3β (setting [1]) was found to be 0.5 nM; in the assay with pTau it was 77 nM; on GSK3α, 0.44 nM.
In the same order, the values of `O=C(Nc1cnccc1-c1ccccc1)c1ccnc(Nc2ccc(Cl)cc2)n1` [Example 10, 2-((4-Chlorophenyl)amino)-N-(4-phenylpyridin-3-yl)pyrimidine-4-carboxamide] are 0.35 nM, 78 nM and 0.28 nM.
In the same order, the values of `O=C(Nc1cnccc1OCC(F)(F)F)c1ccnc(Nc2ccc(F)cc2)n1` [Example 55, 2-((4-Fluorophenyl)amino)-N-(4-(2,2,2-trifluoroethoxy)pyridin-3-yl)pyrimidine-4-carboxamide] are 0.26 nM, 7.6 nM and 0.16 nM.
On to `O=C(Nc1cnccc1-c1ccccc1)c1ccnc(Nc2ccncc2)n1` [Example 35, N-(4-Phenylpyridin-3-yl)-2-(pyridin-4-ylamino)pyrimidine-4-carboxamide], for which the IC50 on GSK3β (setting [1]) worked out at 1.1 nM; with pTau, 30 nM; at GSK3α, 0.63 nM.
With `O=C(Nc1cncnc1)c1ccnc(NCC2CC2c2cccc(F)c2)n1` (stereo not drawn) [Example 200, 2-(((2-(3-Fluorophenyl)cyclopropyl)methyl)amino)-N-(pyrimidin-5-yl)pyrimidine-4-carboxamide], the values for the IC50 at GSK3β (setting [1]), in the assay on pTau and at GSK3α were 53 nM, 6400 nM and 59 nM, respectively.
On to `O=C(Nc1cnc(F)cc1N1CCC(F)(F)CC1)c1ccnc(NCC2CC2)n1` [Example 179, 2-((Cyclopropylmethyl)amino)-N-(4-(4,4-difluoropiperidin-1-yl)-6-fluoropyridin-3-yl)pyrimidine-4-carboxamide], for which the figures for the IC50 on GSK3β (setting [1]), in the assay on pTau and on GSK3α were 0.7 nM, 94 nM and 0.61 nM, respectively.
With `CC(C)(C)CNc1nccc(C(=O)Nc2cncnc2OCC(F)(F)F)n1` [Example 189, 2-(Neopentylamino)-N-(4-(2,2,2-trifluoroethoxy)pyrimidin-5-yl)pyrimidine-4-carboxamide], the IC50 was determined as 1.43 nM at GSK3β (setting [1]), 410 nM with pTau and 0.8 nM at GSK3α.
As for `O=C(Nc1cncc(-c2ccccc2F)c1)c1ccnc(Nc2ccc(OC(F)F)nc2)n1` [Example 105, 2-((6-(Difluoromethoxy)pyridin-3-yl)amino)-N-(5-(2-fluorophenyl)pyridin-3-yl)pyrimidine-4-carboxamide], the values for the half-inhibitory concentration (IC50) at GSK3β (setting [1]), with pTau and at GSK3α were 31 nM, 2100 nM and 15 nM, respectively.
As to `O=C(Nc1cncc(-c2ccccc2F)c1)c1ccnc(NCC2CC2)n1` [Example 186, 2-((Cyclopropylmethyl)amino)-N-(5-(2-fluorophenyl)pyridin-3-yl)pyrimidine-4-carboxamide], the half-inhibitory concentration (IC50) on GSK3β (setting [1]) was determined as 6 nM; in the assay with pTau, 5000 nM; at GSK3α, 9.9 nM.
As to `CC1(CNc2nccc(C(=O)Nc3cncnc3OCC(F)(F)F)n2)COC1` [Example 191, 2-(((3-Methyloxetan-3-yl)methyl)amino)-N-(4-(2,2,2-trifluoroethoxy)pyrimidin-5-yl)pyrimidine-4-carboxamide], the figures for the IC50 at GSK3β, with pTau and at GSK3α were 3.3 nM, 240 nM and 4.3 nM, respectively.
